# B1: IL-7 (protein, UniProt P13232 26-177, looked up)
# Interleukin-7: DCDIEGKDGKQYESVLMVSIDQLLDSMKEIGSNCLNNEFNFFKRHICDANKEGMFLFRAARKLRQFLKMNSTGDFDLHLLKVSEGTTILLNCTGQVKGRKPAALGEAQPTKSLEENKSLKEQKKLNDLCFLKRLLQEIKTCWNKILMGTKEH
# Legend:
# [1] = system: primary human naïve CD8+ T cells; assay type: cell-based
# murine CD8+ T cells = assay: IFN-γ expression and proliferation of murine CD8+ T cells; assay type: cell-based, mouse
# CoV2 RBD protein = system: CoV2 RBD protein; parameters: species or system SARS-CoV-2; conditions: in vivo
Molecule,development of TMSCs [1],TMSC formation [1],also measured
6-bromo-substituted indirubin [BIO],promoted the development of TMSCs,,
O=C1Cc2c([nH]c3ccc(Br)cc23)-c2ncccc2N1 [1-Azakenpaullone],promoted the development of TMSCs,,
CC(=O)O/N=C1/C(=C2/C(=O)Nc3cc(Br)ccc32)Nc2ccccc21 [BIO-acetoxime],promoted the development of TMSCs,,
Nc1cccc(-c2cc3c(Oc4cccc(O)c4)ncnc3[nH]2)c1.O=C(O)C(F)(F)F.O=C(O)C(F)(F)F [TWS119],,could not induce TMSC formation,IFN-γ expression (murine CD8+ T cells; 4 days post treatment): inhibited; T cell proliferation (murine CD8+ T cells; CFSE proliferation staining): inhibited
IL-15,,only a moderate advantage,TMSC expansion in culture [1]: significantly expanded TMSCs
Polyinosinic:polycytidylic acid [poly(I:C)],,,humoral response (CoV2 RBD protein): strong humoral response; ratio of IgG2b to IgG1 titer (CoV2 RBD protein): balanced Th1/Th2 profile or Th2-dominant response
B1,,only a moderate advantage,TMSC expansion in culture [1]: significantly expanded TMSCs

# Reference: patent US20250049911A1, “I[…] FOR IMMUNOTHERAPEUTIC AND OTHER USES” (priority 2021, published 2025)
